# Data reported in patent US7195756B2, “Control of arthropod vectors of parasitic diseases” (Centers for Disease Control and Prevention, priority 2000, dated 2007).
# How the values were obtained:
# Ixodes scapularis = test: Field trial Mason's Island: tick burdens on white-footed mice, fipronil-treated bait boxes; assay type: in vivo; settings: for mean number of larvae/mouse: treated area
# Experimental: (§1) A field trial was conducted from April to September, 1999 on Mason's Island, Mystic, Conn. […] Four sites situated in undeveloped natural areas were used as untreated controls.
# (§2) Modified Protecta Jr. (Bell Laboratories, Madison, Wis.) mouse bait boxes (FIG. 2) were used in this study. The modifications were as follows: a cotton yarn wick was stapled to the underside of the lid just in front of the feeding area entry; two adsorbent nylon strips were affixed to the outer edges of the food block trays. Two Detex monitoring blocks (Bell Laboratories, Madison, Wis.) were placed in each box, 2–3 ml of fipronil topical formulation was applied to the wick and adsorbent strips with a squirt bottle, and the lid was closed and locked with a set screw prior to placement on properties. A 0.43% w/w formulation of fipronil was used in May and June and this was replaced by a 1% w/w formulation from July through September.
# (§3) White-footed mice were live-trapped using 3″×3″×10″ Sherman mouse traps (Sherman Trap Co., Tallahassee, Fla.). Pre-treatment trapping was conducted in April and May and post-treatment trapping from June through September to determine: 1) distribution of mice on individual properties, 2) tick burdens on animals, and 3) spirochete infection rates in mice between treated and untreated plots. Each mouse was anesthetized, ectoparasites were removed, ear tissue was collected for spirochete culture, mice were then bled, weighed, measured, ear-tagged and released at the point of capture. In July and August cloth drags were used to collect host-seeking larval ticks for comparison with results of host-associated tick data.
# (§4) Based upon pre-treatment mouse distribution and abundance data, a total of 125 bait boxes were set out on 13 residences. Boxes were spaced approximately 30 feet apart along the interface with maintained landscaping and wood lot or scrub brush. The number of boxes/property ranged from 4 to 20, depending on property size and presence of suitable mouse habitat. Initial treatment with fipronil began on May 17 and at approximate 4-week intervals each box was re-baited with 2 food blocks and the wick and strips were replenished with 2–3 ml of fipronil formulation. A record of relative use by white-footed mice was kept for each box during the trial.
# Borrelia burgdorferi = test: Field trial Mason's Island: spirochete infection of white-footed mice (ear biopsy culture); assay type: in vivo
# Experimental: as §1, §2, §3, §4
# 3) Impact of fipronil on the natural transmission cycle of B. burgdorferi—Individual captured mice were tested for infection with B. burgdorferi by culture of ear biopsy tissue in BSK H growth media.
# [1] = tested on: nymphal Ixodes scapularis; test: Fipronil bioassay: treated laboratory mice challenged with nymphal ticks; assay type: in vivo; settings: for % of nymphs fed to repletion: 20 μl single topical application
# Experimental: Fipronil Bioassay: To better determine the most efficacious concentration of fipronil active ingredient for use in the bait box method of tick control, a trial was conducted using treated and untreated laboratory mice challenged with nymphal Ixodes scapularis. Individual groups of 5 mice were treated with 20 microliters (one drop) of 1%, 0.75%, 0.5% and 0.43% of fipronil topical oil formulation micropipetted between the scapulae. Five mice were used as untreated controls. Individual mice were challenged with 10 nymphs each on days 14, 28 and 42. During tick challenge mice were held over water in a triple barrier/cage system. Ticks that fed to repletion were collected from the water and used as a measurement for acaricidal activity.
# 4) Fipronil bioassay—A total of 25 mice and 750 nymphal I. scapularis were used in this laboratory trial. The volume of 20 microliters (one average-sized drop) was considered the smallest amount of liquid acaricide that a mouse would apply to itself on a single visit to a bait box.
# I. spinipalpis = test: Field trial Larimer County, Colorado: ticks on Neotoma mexicana, treated bait boxes; assay type: in vivo, Ixodes spinipalpis; parameters: I. spinipalpis control level: concentration or dose not given beside the values; settings: for I. spinipalpis control level: tick burdens treated vs untreated rats, FRONT LINE TOP SPOT
# Experimental: A field trial testing fipronil (FRONT LINE TOP SPOT®) on native rodent-associated ticks was conducted in a Rocky Mountains foothills habitat in Larimer County, Colo. Treated and untreated plots consisted of 35 rat dens within 5 hectares each. A mark-release-capture study with Neotoma mexicana began in April, and captured rats were anesthetized and ticks removed, identified and quantified. The principal tick on N. mexicana is I. spinipalpis, a nidicolous, competent vector in enzootic transmission cycles in Colorado, California and Oregon. […] Fipronil was passively applied to rats as they entered and exited modified commercially available bait boxes as described in Example 1. Treated bait boxes were set out in May, left in place, and retreated and rebaited at four-week intervals through August. Collections were made at 1, 4, 8, 12 and 16 weeks post-application. N. mexicana collected in the untreated control area numbered 92 with 150 total captures resulting in 1273 fleas and ticks. In the fipronil area, 110 individual rats were collected with a total of 179 captures resulting in 416 fleas and ticks.
# [2] = recaptured adult white-footed mice following fipronil treatment, chi-square p = 0.01
smiles,measurement,setting,value
"N#Cc1nn(-c2c(Cl)cc(C(F)(F)F)cc2Cl)c(N)c1[S+]([O-])C(F)(F)F (stereo not drawn) [Fipronil, 5-amino-3-cyano-1-(2,6-dichloro-4-trifluoromethylphenyl)-4-trifluoromethylsulfinylpyrazole]",treated properties with host-seeking larvae present (cloth drags),"Ixodes scapularis; July and August, seven of 13 treated properties",54%
same,larvae on treated mice,"Ixodes scapularis; course of the study, except one engorged larva in August and one larva in September",not present
same,mean number of larvae/mouse,Ixodes scapularis; August (untreated 9.1),0.03
same,mean number of larvae/mouse,Ixodes scapularis; July (untreated 4.5),0
same,live nymphs on mice after fipronil treatment,"Ixodes scapularis; white-footed mice, fipronil-treated area, post-treatment June-September, bait boxes 0.43% then 1% w/w",not found
same,% of spirochete-infected mice,"Borrelia burgdorferi; Peromyscus leucopus, fipronil area, 164 mice, April-September 1999 (untreated 69%)",38%
same,% of properties with infected mice,"Borrelia burgdorferi; fipronil area, 12/13 properties (untreated 100%)",92%
same,young mice that became infected,"Borrelia burgdorferi; post-treatment period, 26 young mice (body mass <17 g), fipronil area (untreated 30% of 26)",none
same,"No. of mice + at first capture, remained +",Borrelia burgdorferi; recaptured adult white-footed mice following fipronil treatment,18
same,"No. of mice − at first capture, became +",Borrelia burgdorferi; [2],4
same,"No. of mice − at first capture, remained −",Borrelia burgdorferi; [2],14
same,% of nymphs fed to repletion,"[1]; 0.43% (85 μg/mouse), 14 days",0%
same,% of nymphs fed to repletion,"[1]; 0.43% (85 μg/mouse), 28 days",16%
same,% of nymphs fed to repletion,"[1]; 0.43% (85 μg/mouse), 42 days",30%
same,% of nymphs fed to repletion,"[1]; 0.50% (100 μg/mouse), 14 days",0%
same,% of nymphs fed to repletion,"[1]; 0.50% (100 μg/mouse), 28 days",8%
same,% of nymphs fed to repletion,"[1]; 0.50% (100 μg/mouse), 42 days",24%
same,% of nymphs fed to repletion,"[1]; 1.00% (200 μg/mouse), 14 days",0%
same,% of nymphs fed to repletion,"[1]; 1.00% (200 μg/mouse), 28 days",0%
same,% of nymphs fed to repletion,"[1]; 1.00% (200 μg/mouse), 42 days",2%
same,optimum concentration of fipronil to kill ticks on mice for 30 days after a single exposure,[1]; 20 microliters (=150 micrograms),0.75%
same,fleas and ticks collected,"I. spinipalpis; fipronil area, 110 rats, 179 captures (untreated: 1273 from 150 captures)",416
same,I. spinipalpis control level,I. spinipalpis; week 1 post-application,25%
same,I. spinipalpis control level,I. spinipalpis; week 4 post-application,90%
same,I. spinipalpis control level,I. spinipalpis; week 8 post-application,75%
same,I. spinipalpis control level,I. spinipalpis; week 12 post-application,97%
same,I. spinipalpis control level,I. spinipalpis; week 16 post-application,93%
